Data published in ChEMBL document CHEMBL4507302, “Data for DCP probe TP-020” (2021).

What was measured:
[1] = target: Serine/threonine-protein kinase RIO1 (Homo sapiens) (UniProt Q9BRS2); settings: Compound concentration 1000.0 nM
[2] = tested on: Epidermal growth factor receptor (Homo sapiens), P00533 [UNDEFINED MUTATION]; settings: Compound concentration 1000.0 nM
[3] = target: Mitogen-activated protein kinase kinase kinase 10 (Homo sapiens) (UniProt Q02779); settings: Compound concentration 1000.0 nM
[4] = target: Serine/threonine-protein kinase 24 (Homo sapiens) (UniProt Q9Y6E0); settings: Compound concentration 1000.0 nM
[5] = target: Calcium/calmodulin-dependent protein kinase kinase 1 (Homo sapiens) (UniProt Q8N5S9); settings: Compound concentration 1000.0 nM
[6] = target: Tyrosine-protein kinase Srms (Homo sapiens) (UniProt Q9H3Y6); settings: Compound concentration 1000.0 nM
[7] = target: RAC-beta serine/threonine-protein kinase (Homo sapiens) (UniProt P31751); settings: Compound concentration 1000.0 nM
[8] = target: Protein-tyrosine kinase 6 (Homo sapiens) (UniProt Q13882); settings: Compound concentration 1000.0 nM
[9] = target: Discoidin domain-containing receptor 2 (Homo sapiens) (UniProt Q16832); settings: Compound concentration 1000.0 nM
[10] = target: Cyclin-dependent kinase 5 (Homo sapiens) (UniProt Q00535); settings: Compound concentration 1000.0 nM
[11] = target: Activin receptor type-2A (Homo sapiens) (UniProt P27037); settings: Compound concentration 1000.0 nM
[12] = target: D(1B) dopamine receptor (Homo sapiens) (UniProt P21918); settings: Compound concentration 10.0 uM
[13] = target: Ephrin type-B receptor 2 (Homo sapiens) (UniProt P29323); settings: Compound concentration 1000.0 nM
[14] = target: Activin receptor type-1 (Homo sapiens) (UniProt Q04771); settings: Compound concentration 1000.0 nM
[15] = target: Dual specificity mitogen-activated protein kinase kinase 6 (Homo sapiens) (UniProt P52564); settings: Compound concentration 1000.0 nM
[16] = target: Dual specificity protein kinase CLK2 (Homo sapiens) (UniProt P49760); settings: Compound concentration 1000.0 nM
[17] = target: Tyrosine-protein kinase SYK (Homo sapiens) (UniProt P43405); settings: Compound concentration 1000.0 nM
[18] = target: Ephrin type-A receptor 6 (Homo sapiens) (UniProt Q9UF33); settings: Compound concentration 1000.0 nM
[19] = tested on: Tyrosine-protein kinase ABL1 (Homo sapiens), P00519 [Q252H]; settings: Compound concentration 1000.0 nM
[20] = target: Serine/threonine-protein kinase MRCK alpha (Homo sapiens) (UniProt Q5VT25); settings: Compound concentration 1000.0 nM
[21] = target: Cyclin-G-associated kinase (Homo sapiens) (UniProt O14976); settings: Compound concentration 1000.0 nM
[22] = target: Sodium-dependent serotonin transporter (Homo sapiens) (UniProt P31645); settings: Compound concentration 10.0 uM
[23] = target: Dual specificity mitogen-activated protein kinase kinase 1 (Homo sapiens) (UniProt Q02750); settings: Compound concentration 1000.0 nM
[24] = target: Cyclin-dependent kinase 15 (Homo sapiens) (UniProt Q96Q40); settings: Compound concentration 1000.0 nM
[25] = target: Serine/threonine-protein kinase Nek3 (Homo sapiens) (UniProt P51956); settings: Compound concentration 1000.0 nM
[26] = target: Cyclin-dependent kinase-like 2 (Homo sapiens) (UniProt Q92772); settings: Compound concentration 1000.0 nM
[27] = target: Insulin receptor (Homo sapiens) (UniProt P06213); settings: Compound concentration 1000.0 nM
[28] = target: Leukocyte tyrosine kinase receptor (Homo sapiens) (UniProt P29376); settings: Compound concentration 1000.0 nM
[29] = target: Peripheral plasma membrane protein CASK (Homo sapiens) (UniProt O14936); settings: Compound concentration 1000.0 nM
[30] = target: Epithelial discoidin domain-containing receptor 1 (Homo sapiens) (UniProt Q08345); settings: Compound concentration 1000.0 nM
[31] = target: Tyrosine-protein kinase BTK (Homo sapiens) (UniProt Q06187); settings: Compound concentration 1000.0 nM
[32] = target: Dual specificity testis-specific protein kinase 1 (Homo sapiens) (UniProt Q15569); settings: Compound concentration 1000.0 nM
[33] = tested on: Hepatocyte growth factor receptor (Homo sapiens), P08581 [M1250T]; settings: Compound concentration 1000.0 nM
[34] = target: Misshapen-like kinase 1 (Homo sapiens) (UniProt Q8N4C8); settings: Compound concentration 1000.0 nM
[35] = target: Protein-tyrosine kinase 2-beta (Homo sapiens) (UniProt Q14289); settings: Compound concentration 1000.0 nM
[36] = target: Insulin receptor-related protein (Homo sapiens) (UniProt P14616); settings: Compound concentration 1000.0 nM
[37] = target: Myosin light chain kinase family member 4 (Homo sapiens) (UniProt Q86YV6); settings: Compound concentration 1000.0 nM
[38] = target: 3-phosphoinositide-dependent protein kinase 1 (Homo sapiens) (UniProt O15530); settings: Compound concentration 1000.0 nM
[39] = target: Beta-2 adrenergic receptor (Homo sapiens) (UniProt P07550); settings: Compound concentration 10.0 uM
[40] = target: Tyrosine-protein kinase Mer (Homo sapiens) (UniProt Q12866); settings: Compound concentration 1000.0 nM
[41] = tested on: Tyrosine-protein kinase ABL1 (Homo sapiens), P00519 [F317I]; settings: Compound concentration 1000.0 nM
[42] = target: Serine/threonine-protein kinase 32B (Homo sapiens) (UniProt Q9NY57); settings: Compound concentration 1000.0 nM
[43] = target: Serine/threonine-protein kinase Sgk3 (Homo sapiens) (UniProt Q96BR1); settings: Compound concentration 1000.0 nM
[44] = target: Mast/stem cell growth factor receptor Kit (Homo sapiens) (UniProt P10721); settings: Compound concentration 1000.0 nM
[45] = target: Protein kinase C delta type (Homo sapiens) (UniProt Q05655); settings: Compound concentration 1000.0 nM
[46] = target: Tyrosine-protein kinase JAK3 (Homo sapiens) (UniProt P52333); settings: Compound concentration 1000.0 nM

Chain of Dual specificity mitogen-activated protein kinase kinase 1 (Homo sapiens) (Q02750 whole entry): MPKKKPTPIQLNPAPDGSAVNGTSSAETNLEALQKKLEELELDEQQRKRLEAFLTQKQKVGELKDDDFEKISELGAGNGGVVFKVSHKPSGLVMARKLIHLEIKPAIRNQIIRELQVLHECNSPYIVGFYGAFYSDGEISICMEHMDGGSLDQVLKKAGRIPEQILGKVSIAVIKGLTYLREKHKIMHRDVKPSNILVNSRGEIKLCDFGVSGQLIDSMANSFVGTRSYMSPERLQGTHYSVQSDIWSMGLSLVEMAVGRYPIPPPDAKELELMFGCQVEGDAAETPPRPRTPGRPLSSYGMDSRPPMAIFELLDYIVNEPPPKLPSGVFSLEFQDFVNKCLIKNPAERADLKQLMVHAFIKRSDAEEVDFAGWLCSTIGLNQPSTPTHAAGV
Chain of D(1B) dopamine receptor (Homo sapiens) (P21918 whole entry): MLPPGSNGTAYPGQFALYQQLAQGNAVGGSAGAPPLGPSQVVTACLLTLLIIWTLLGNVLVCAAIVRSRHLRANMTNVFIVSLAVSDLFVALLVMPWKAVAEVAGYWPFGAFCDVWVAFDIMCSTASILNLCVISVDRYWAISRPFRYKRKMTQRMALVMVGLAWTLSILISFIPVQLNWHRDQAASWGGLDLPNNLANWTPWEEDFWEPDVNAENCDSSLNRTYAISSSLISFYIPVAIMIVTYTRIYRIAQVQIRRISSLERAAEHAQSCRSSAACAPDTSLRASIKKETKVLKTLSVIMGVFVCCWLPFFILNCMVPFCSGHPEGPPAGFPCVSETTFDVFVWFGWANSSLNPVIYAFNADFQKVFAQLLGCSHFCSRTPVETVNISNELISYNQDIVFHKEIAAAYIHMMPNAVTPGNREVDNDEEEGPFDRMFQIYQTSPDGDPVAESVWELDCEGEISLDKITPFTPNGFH
Chain of Protein-tyrosine kinase 6 (Homo sapiens) (Q13882 whole entry, looked up, the tested form may be a part): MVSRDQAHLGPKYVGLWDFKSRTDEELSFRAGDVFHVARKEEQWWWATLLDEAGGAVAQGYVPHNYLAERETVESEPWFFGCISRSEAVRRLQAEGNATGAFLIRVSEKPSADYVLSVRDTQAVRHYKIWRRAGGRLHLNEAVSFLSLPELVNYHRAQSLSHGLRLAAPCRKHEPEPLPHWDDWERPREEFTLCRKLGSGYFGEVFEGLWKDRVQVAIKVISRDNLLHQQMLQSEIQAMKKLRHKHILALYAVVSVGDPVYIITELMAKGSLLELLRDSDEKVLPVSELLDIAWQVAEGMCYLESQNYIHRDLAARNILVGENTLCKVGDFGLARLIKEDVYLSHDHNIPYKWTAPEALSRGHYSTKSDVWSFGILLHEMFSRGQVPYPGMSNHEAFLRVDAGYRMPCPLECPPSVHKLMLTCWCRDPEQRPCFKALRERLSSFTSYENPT
Chain of Epidermal growth factor receptor (Homo sapiens), P00533 [UNDEFINED MUTATION] (P00533 whole entry, looked up, change not shown): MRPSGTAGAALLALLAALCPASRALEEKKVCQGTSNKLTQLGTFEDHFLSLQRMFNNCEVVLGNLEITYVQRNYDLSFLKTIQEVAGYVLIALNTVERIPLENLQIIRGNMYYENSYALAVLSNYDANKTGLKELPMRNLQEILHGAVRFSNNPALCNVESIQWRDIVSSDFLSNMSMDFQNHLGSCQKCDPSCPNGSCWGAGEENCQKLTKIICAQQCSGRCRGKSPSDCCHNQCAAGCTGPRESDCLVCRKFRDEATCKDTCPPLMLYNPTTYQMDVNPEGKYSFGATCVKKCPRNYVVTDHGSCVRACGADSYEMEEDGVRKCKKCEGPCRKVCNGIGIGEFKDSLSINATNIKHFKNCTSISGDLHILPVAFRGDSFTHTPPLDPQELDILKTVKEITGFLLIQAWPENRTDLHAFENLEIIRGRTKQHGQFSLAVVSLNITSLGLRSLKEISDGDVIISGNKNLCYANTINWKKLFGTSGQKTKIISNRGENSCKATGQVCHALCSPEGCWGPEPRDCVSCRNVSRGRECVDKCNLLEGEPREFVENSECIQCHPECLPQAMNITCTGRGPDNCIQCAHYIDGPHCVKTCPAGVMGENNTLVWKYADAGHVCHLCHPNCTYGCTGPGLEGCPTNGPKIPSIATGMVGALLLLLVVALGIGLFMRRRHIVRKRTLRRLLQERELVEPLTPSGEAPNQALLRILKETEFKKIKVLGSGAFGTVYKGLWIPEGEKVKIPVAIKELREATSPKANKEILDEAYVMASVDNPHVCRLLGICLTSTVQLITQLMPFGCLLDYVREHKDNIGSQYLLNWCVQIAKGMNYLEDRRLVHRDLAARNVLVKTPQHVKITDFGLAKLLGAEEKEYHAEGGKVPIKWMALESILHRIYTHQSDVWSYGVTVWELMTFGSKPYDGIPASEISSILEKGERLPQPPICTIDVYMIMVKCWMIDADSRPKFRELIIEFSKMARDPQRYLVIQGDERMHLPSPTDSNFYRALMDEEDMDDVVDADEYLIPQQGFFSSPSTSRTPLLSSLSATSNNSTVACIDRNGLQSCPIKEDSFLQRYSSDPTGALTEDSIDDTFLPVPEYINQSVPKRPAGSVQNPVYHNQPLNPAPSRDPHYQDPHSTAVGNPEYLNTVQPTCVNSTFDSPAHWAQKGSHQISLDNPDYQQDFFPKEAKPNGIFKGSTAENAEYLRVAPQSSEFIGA
Chain of Ephrin type-A receptor 6 (Homo sapiens) (Q9UF33 whole entry): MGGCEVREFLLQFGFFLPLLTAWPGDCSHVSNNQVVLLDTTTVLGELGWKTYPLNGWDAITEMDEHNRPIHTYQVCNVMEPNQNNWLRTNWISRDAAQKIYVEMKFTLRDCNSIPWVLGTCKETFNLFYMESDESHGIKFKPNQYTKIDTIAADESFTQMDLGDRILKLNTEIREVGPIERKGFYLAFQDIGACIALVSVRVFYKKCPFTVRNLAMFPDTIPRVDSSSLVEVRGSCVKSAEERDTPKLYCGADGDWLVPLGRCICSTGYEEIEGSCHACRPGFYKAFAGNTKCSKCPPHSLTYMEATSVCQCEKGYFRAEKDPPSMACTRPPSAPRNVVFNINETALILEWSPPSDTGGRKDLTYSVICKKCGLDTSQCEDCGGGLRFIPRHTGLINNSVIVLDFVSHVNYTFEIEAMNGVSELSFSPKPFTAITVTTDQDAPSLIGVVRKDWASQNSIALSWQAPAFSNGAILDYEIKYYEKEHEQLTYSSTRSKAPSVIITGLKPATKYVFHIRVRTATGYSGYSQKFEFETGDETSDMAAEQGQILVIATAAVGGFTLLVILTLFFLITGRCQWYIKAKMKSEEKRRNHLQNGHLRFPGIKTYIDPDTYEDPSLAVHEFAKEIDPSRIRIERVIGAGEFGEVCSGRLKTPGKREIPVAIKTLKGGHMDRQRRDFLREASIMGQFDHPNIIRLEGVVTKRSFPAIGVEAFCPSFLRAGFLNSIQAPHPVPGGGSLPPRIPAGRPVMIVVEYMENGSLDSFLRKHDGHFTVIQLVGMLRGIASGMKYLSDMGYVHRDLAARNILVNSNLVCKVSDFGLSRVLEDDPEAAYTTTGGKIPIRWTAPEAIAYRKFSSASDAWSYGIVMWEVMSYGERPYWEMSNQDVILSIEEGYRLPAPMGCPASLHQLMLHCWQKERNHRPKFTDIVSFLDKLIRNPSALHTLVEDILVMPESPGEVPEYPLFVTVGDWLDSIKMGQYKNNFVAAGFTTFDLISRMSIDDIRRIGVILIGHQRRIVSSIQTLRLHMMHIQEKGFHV
Chain of Insulin receptor-related protein (Homo sapiens) (P14616 27-742 limits assumed): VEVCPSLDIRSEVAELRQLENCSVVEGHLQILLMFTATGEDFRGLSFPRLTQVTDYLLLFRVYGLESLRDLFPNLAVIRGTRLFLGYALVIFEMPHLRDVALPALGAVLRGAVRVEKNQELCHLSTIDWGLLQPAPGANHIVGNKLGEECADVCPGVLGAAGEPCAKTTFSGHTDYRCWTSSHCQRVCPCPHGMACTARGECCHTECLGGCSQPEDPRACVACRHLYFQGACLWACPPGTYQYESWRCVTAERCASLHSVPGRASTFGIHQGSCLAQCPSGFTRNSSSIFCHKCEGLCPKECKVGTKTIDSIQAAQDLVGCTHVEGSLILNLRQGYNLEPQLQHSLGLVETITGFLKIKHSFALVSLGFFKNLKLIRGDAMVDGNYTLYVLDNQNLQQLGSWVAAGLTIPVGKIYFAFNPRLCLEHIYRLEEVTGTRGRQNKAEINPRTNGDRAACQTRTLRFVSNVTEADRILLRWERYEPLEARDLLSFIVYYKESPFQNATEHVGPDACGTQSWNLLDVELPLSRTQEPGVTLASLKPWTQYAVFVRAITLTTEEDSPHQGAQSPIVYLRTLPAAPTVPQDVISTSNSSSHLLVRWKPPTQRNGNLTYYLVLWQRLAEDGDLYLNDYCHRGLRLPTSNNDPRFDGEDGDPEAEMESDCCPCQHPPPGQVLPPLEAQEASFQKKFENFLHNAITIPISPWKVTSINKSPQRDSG
Chain of Insulin receptor-related protein (Homo sapiens) (P14616 747-1297 limits assumed): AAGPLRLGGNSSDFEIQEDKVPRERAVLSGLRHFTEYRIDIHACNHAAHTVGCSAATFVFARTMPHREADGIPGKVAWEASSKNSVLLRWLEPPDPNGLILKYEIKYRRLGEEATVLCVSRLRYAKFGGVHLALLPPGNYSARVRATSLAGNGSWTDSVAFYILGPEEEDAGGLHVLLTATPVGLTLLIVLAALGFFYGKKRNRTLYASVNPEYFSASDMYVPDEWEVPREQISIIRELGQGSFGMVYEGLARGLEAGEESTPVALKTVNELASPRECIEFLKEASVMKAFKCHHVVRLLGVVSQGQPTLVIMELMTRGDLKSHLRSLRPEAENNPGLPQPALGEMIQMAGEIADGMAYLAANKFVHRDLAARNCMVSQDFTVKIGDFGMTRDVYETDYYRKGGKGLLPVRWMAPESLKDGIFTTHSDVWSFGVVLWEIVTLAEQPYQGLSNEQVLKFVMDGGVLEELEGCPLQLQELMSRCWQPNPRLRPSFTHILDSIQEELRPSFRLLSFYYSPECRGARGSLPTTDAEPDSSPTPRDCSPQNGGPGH

Nc1cnc(N2CCc3cc(S(=O)(=O)Nc4c(F)cc(Cl)cc4F)cc(N4CCCC4=O)c32)nc1
inactive: residual activity [1] 100% | residual activity [2] 100% | residual activity [3] 75% | residual activity [4] 100% | residual activity [5] 100% | residual activity [6] 88% | residual activity [7] 100% | residual activity [8] 100% | residual activity [9] 100% | residual activity [10] 100% | residual activity [11] 67% | inhibition [12] 7.88% | residual activity [13] 87% | residual activity [14] 100% | residual activity [15] 71% | residual activity [16] 100% | residual activity [17] 100% | residual activity [18] 98% | residual activity [19] 98% | residual activity [20] 100% | residual activity [21] 100% | inhibition [22] 9.34% | residual activity [23] 100% | residual activity [24] 80% | residual activity [25] 100% | residual activity [26] 85% | residual activity [27] 89% | residual activity [28] 100% | residual activity [29] 94% | residual activity [30] 100% | residual activity [31] 100% | residual activity [32] 100% | residual activity [33] 100% | residual activity [34] 100% | residual activity [35] 100% | residual activity [36] 100% | residual activity [37] 100% | residual activity [38] 98% | inhibition [39] -3.08% | residual activity [40] 100% | residual activity [41] 100% | residual activity [42] 74% | residual activity [43] 100% | residual activity [44] 100% | residual activity [45] 86% | residual activity [46] 100%

Cn1nc(C(F)(F)F)cc1-c1cnc(N2CCc3cc(S(=O)(=O)Nc4c(F)cc(Cl)cc4F)cc(N4CCCC4=O)c32)nc1 [TP-020]
inactive: residual activity [1] 96% | residual activity [2] 100% | residual activity [3] 93% | residual activity [4] 90% | residual activity [5] 98% | residual activity [6] 100% | residual activity [7] 100% | residual activity [8] 90% | residual activity [9] 80% | residual activity [10] 100% | residual activity [11] 83% | inhibition [12] 42.5% | residual activity [13] 100% | residual activity [14] 85% | residual activity [15] 100% | residual activity [16] 86% | residual activity [17] 100% | residual activity [18] 89% | residual activity [19] 99% | residual activity [20] 100% | residual activity [21] 94% | inhibition [22] 0.95% | residual activity [23] 95% | residual activity [24] 100% | residual activity [25] 90% | residual activity [26] 100% | residual activity [27] 89% | residual activity [28] 94% | residual activity [29] 77% | residual activity [30] 100% | residual activity [31] 85% | residual activity [32] 86% | residual activity [33] 94% | residual activity [34] 99% | residual activity [35] 100% | residual activity [36] 90% | residual activity [37] 99% | residual activity [38] 100% | inhibition [39] 17.4% | residual activity [40] 100% | residual activity [41] 71% | residual activity [42] 95% | residual activity [43] 78% | residual activity [44] 91% | residual activity [45] 95% | residual activity [46] 81%
